Measurements published in PubChem BioAssay AID2060486 (Molecular Pharmacology Branch, DTP, NCI, 2025).
pIC50: −log10 of the molar value.

Test system: IGROV1 complex spheroids (HUVEC, MSC), viability % test/control
Assay: Anticancer human tumor IGROV1 cell line growth inhibition [GQUAD];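 further: spheroids exposed to compounds for 7 days before readout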;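 on viability, T/C: 100% = DMSO vehicle control viability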
Details: for pIC50: curve of first compound; for viability, T/C: stronger effect = lower value
Summary of the method: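 Tumor cells were grown as complex spheroids with HUVEC endothelial cells and mesenchymal stem cells as stroma. G-quadruplex stabilizers were combined with targeted agents over half-log dilutions from near the clinical Cmax, or from 10 microM.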

[1] = second compound 0.0316 µM, first compound 0.0316 µM
[2] = second compound 0.0316 µM, first compound 0.1 µM
[3] = second compound 0.0316 µM, first compound 0.316 µM
[4] = second compound 0.0316 µM, first compound 1 µM
[5] = second compound 0.0316 µM, first compound 3.16 µM
[6] = second compound 0.0316 µM, first compound 10 µM
[7] = second compound 0.1 µM, first compound 0.0316 µM
[8] = second compound 0.1 µM, first compound 0.1 µM
[9] = second compound 0.1 µM, first compound 0.316 µM
[10] = second compound 0.1 µM, first compound 1 µM
[11] = second compound 0.1 µM, first compound 3.16 µM
[12] = second compound 0.1 µM, first compound 10 µM
[13] = second compound 0.316 µM, first compound 0.0316 µM
[14] = second compound 0.316 µM, first compound 0.1 µM
[15] = second compound 0.316 µM, first compound 0.316 µM
[16] = second compound 0.316 µM, first compound 1 µM
[17] = second compound 0.316 µM, first compound 3.16 µM
[18] = second compound 0.316 µM, first compound 10 µM
[19] = second compound 1 µM, first compound 0.0316 µM
[20] = second compound 1 µM, first compound 0.1 µM
[21] = second compound 1 µM, first compound 0.316 µM
[22] = second compound 1 µM, first compound 1 µM
[23] = second compound 1 µM, first compound 3.16 µM
[24] = second compound 1 µM, first compound 10 µM
[25] = second compound 3.16 µM, first compound 0.0316 µM
[26] = second compound 3.16 µM, first compound 0.1 µM
[27] = second compound 3.16 µM, first compound 0.316 µM
[28] = second compound 3.16 µM, first compound 1 µM
[29] = second compound 3.16 µM, first compound 3.16 µM
[30] = second compound 3.16 µM, first compound 10 µM
[31] = second compound 10 µM, first compound 0.0316 µM
[32] = second compound 10 µM, first compound 0.1 µM
[33] = second compound 10 µM, first compound 0.316 µM
[34] = second compound 10 µM, first compound 1 µM
[35] = second compound 10 µM, first compound 3.16 µM
[36] = second compound 10 µM, first compound 10 µM
[37] = second compound 0.0316 µM, first compound 0.000999 µM
[38] = second compound 0.0316 µM, first compound 0.00316 µM
[39] = second compound 0.0316 µM, first compound 0.00999 µM
[40] = second compound 0.0316 µM, first compound 0.0999 µM
[41] = second compound 0.1 µM, first compound 0.000999 µM
[42] = second compound 0.1 µM, first compound 0.00316 µM
[43] = second compound 0.1 µM, first compound 0.00999 µM
[44] = second compound 0.1 µM, first compound 0.0999 µM
[45] = second compound 0.316 µM, first compound 0.000999 µM
[46] = second compound 0.316 µM, first compound 0.00316 µM
[47] = second compound 0.316 µM, first compound 0.00999 µM
[48] = second compound 0.316 µM, first compound 0.0999 µM
[49] = second compound 1 µM, first compound 0.000999 µM
[50] = second compound 1 µM, first compound 0.00316 µM
[51] = second compound 1 µM, first compound 0.00999 µM
[52] = second compound 1 µM, first compound 0.0999 µM
[53] = second compound 3.16 µM, first compound 0.000999 µM
[54] = second compound 3.16 µM, first compound 0.00316 µM
[55] = second compound 3.16 µM, first compound 0.00999 µM
[56] = second compound 3.16 µM, first compound 0.0999 µM
[57] = second compound 10 µM, first compound 0.000999 µM
[58] = second compound 10 µM, first compound 0.00316 µM
[59] = second compound 10 µM, first compound 0.00999 µM
[60] = second compound 10 µM, first compound 0.0999 µM

C=CC(=O)N1CCN(c2nc(=O)n(-c3c(C)ccnc3C(C)C)c3nc(-c4c(O)cccc4F)c(F)cc23)C(C)C1 (stereo not drawn) + CN(C)c1ccc(Nc2c3ccc(NC(=O)CCN4CCCC4)cc3nc3cc(NC(=O)CCN4CCCC4)ccc23)cc1
pIC50 (second compound 0.0316 µM): < 5.00
pIC50 (second compound 0.1 µM): < 5.00
pIC50 (second compound 0.316 µM): < 5.00
pIC50 (second compound 1 µM): < 5.00
pIC50 (second compound 3.16 µM): < 5.00
pIC50 (second compound 10 µM): 5.31
viability, T/C [1]: 99.1%
viability, T/C [2]: 100%
viability, T/C [3]: 106%
viability, T/C [4]: 90.7%
viability, T/C [5]: 104%
viability, T/C [6]: 90.5%
viability, T/C [7]: 99.7%
viability, T/C [8]: 90.3%
viability, T/C [9]: 96.3%
viability, T/C [10]: 88.5%
viability, T/C [11]: 111%
viability, T/C [12]: 104%
viability, T/C [13]: 91.5%
viability, T/C [14]: 75.2%
viability, T/C [15]: 88.4%
viability, T/C [16]: 83.3%
viability, T/C [17]: 111%
viability, T/C [18]: 83.3%
viability, T/C [19]: 90.1%
viability, T/C [20]: 70.3%
viability, T/C [21]: 93.7%
viability, T/C [22]: 108%
viability, T/C [23]: 106%
viability, T/C [24]: 95.1%
viability, T/C [25]: 86%
viability, T/C [26]: 86.4%
viability, T/C [27]: 101%
viability, T/C [28]: 99.5%
viability, T/C [29]: 99.5%
viability, T/C [30]: 77.8%
viability, T/C [31]: 62.6%
viability, T/C [32]: 58.7%
viability, T/C [33]: 67.2%
viability, T/C [34]: 71.8%
viability, T/C [35]: 64.1%
viability, T/C [36]: 26.3%

CCc1c2c(nc3ccc(O)cc13)-c1cc3c(c(=O)n1C2)COC(=O)[C@]3(O)CC + CN(C)c1ccc(Nc2c3ccc(NC(=O)CCN4CCCC4)cc3nc3cc(NC(=O)CCN4CCCC4)ccc23)cc1
pIC50 (second compound 0.0316 µM): 8.91
pIC50 (second compound 0.1 µM): 8.98
pIC50 (second compound 0.316 µM): > 9.00
pIC50 (second compound 1 µM): > 9.00
pIC50 (second compound 3.16 µM): > 9.00
pIC50 (second compound 10 µM): > 9.00
viability, T/C [37]: 57.5%
viability, T/C [38]: 15.8%
viability, T/C [39]: 11.4%
viability, T/C [1]: 7.01%
viability, T/C [40]: 5.52%
viability, T/C [3]: 1.54%
viability, T/C [41]: 51.9%
viability, T/C [42]: 15.3%
viability, T/C [43]: 11.3%
viability, T/C [7]: 8.79%
viability, T/C [44]: 5.38%
viability, T/C [9]: 1.47%
viability, T/C [45]: 49.7%
viability, T/C [46]: 16.7%
viability, T/C [47]: 9.1%
viability, T/C [13]: 8.69%
viability, T/C [48]: 3.87%
viability, T/C [15]: 1.5%
viability, T/C [49]: 49.5%
viability, T/C [50]: 13.7%
viability, T/C [51]: 9.93%
viability, T/C [19]: 8.16%
viability, T/C [52]: 5.08%
viability, T/C [21]: 2.04%
viability, T/C [53]: 42.3%
viability, T/C [54]: 11.4%
viability, T/C [55]: 8.41%
viability, T/C [25]: 8.25%
viability, T/C [56]: 5.52%
viability, T/C [27]: 1.58%
viability, T/C [57]: 20.3%
viability, T/C [58]: 10.7%
viability, T/C [59]: 9.09%
viability, T/C [31]: 5.5%
viability, T/C [60]: 2.71%
viability, T/C [33]: 2.02%

Cc1cccc(N(C)C(=O)C2C(O)CCN2c2nc(C)cc(C(F)(F)F)c2C#N)c1 (stereo not drawn) + CN(C)c1ccc(Nc2c3ccc(NC(=O)CCN4CCCC4)cc3nc3cc(NC(=O)CCN4CCCC4)ccc23)cc1
pIC50 (second compound 0.0316 µM): < 5.00
pIC50 (second compound 0.1 µM): < 5.00
pIC50 (second compound 0.316 µM): < 5.00
pIC50 (second compound 1 µM): < 5.00
pIC50 (second compound 3.16 µM): 5.26
pIC50 (second compound 10 µM): > 7.50
viability, T/C [1]: 101%
viability, T/C [2]: 75.8%
viability, T/C [3]: 85.2%
viability, T/C [4]: 77.5%
viability, T/C [5]: 92.5%
viability, T/C [6]: 97.1%
viability, T/C [7]: 93.9%
viability, T/C [8]: 83.2%
viability, T/C [9]: 86.9%
viability, T/C [10]: 79.9%
viability, T/C [11]: 95.5%
viability, T/C [12]: 93.1%
viability, T/C [13]: 99.1%
viability, T/C [14]: 79.5%
viability, T/C [15]: 88.5%
viability, T/C [16]: 70.6%
viability, T/C [17]: 88.9%
viability, T/C [18]: 96.2%
viability, T/C [19]: 86.2%
viability, T/C [20]: 90.6%
viability, T/C [21]: 71%
viability, T/C [22]: 84.5%
viability, T/C [23]: 89.3%
viability, T/C [24]: 84.7%
viability, T/C [25]: 83.1%
viability, T/C [26]: 85.2%
viability, T/C [27]: 82.2%
viability, T/C [28]: 64%
viability, T/C [29]: 71%
viability, T/C [30]: 33.9%
viability, T/C [31]: 43.5%
viability, T/C [32]: 50.3%
viability, T/C [33]: 34.3%
viability, T/C [34]: 35%
viability, T/C [35]: 25.7%
viability, T/C [36]: 11.7%

Cn1ncnc1[C@H]1c2n[nH]c(=O)c3cc(F)cc(c23)N[C@@H]1c1ccc(F)cc1 + CN(C)c1ccc(Nc2c3ccc(NC(=O)CCN4CCCC4)cc3nc3cc(NC(=O)CCN4CCCC4)ccc23)cc1
pIC50 (second compound 0.0316 µM): 7.05
pIC50 (second compound 0.1 µM): 7.37
pIC50 (second compound 0.316 µM): 6.90
pIC50 (second compound 1 µM): 7.03
pIC50 (second compound 3.16 µM): 7.25
pIC50 (second compound 10 µM): > 9.00
viability, T/C [37]: 99.9%
viability, T/C [38]: 88.4%
viability, T/C [39]: 95.1%
viability, T/C [1]: 57%
viability, T/C [40]: 58.4%
viability, T/C [3]: 40.1%
viability, T/C [41]: 101%
viability, T/C [42]: 82.3%
viability, T/C [43]: 68.2%
viability, T/C [7]: 46.2%
viability, T/C [44]: 49.7%
viability, T/C [9]: 35.9%
viability, T/C [45]: 95.7%
viability, T/C [46]: 77.7%
viability, T/C [47]: 81.3%
viability, T/C [13]: 52.2%
viability, T/C [48]: 61.5%
viability, T/C [15]: 38.4%
viability, T/C [49]: 90.6%
viability, T/C [50]: 79%
viability, T/C [51]: 64.9%
viability, T/C [19]: 65.4%
viability, T/C [52]: 57%
viability, T/C [21]: 28.8%
viability, T/C [53]: 86.2%
viability, T/C [54]: 79.4%
viability, T/C [55]: 70.6%
viability, T/C [25]: 58.1%
viability, T/C [56]: 42.1%
viability, T/C [27]: 29.6%
viability, T/C [57]: 47.8%
viability, T/C [58]: 40.2%
viability, T/C [59]: 35.8%
viability, T/C [31]: 35.1%
viability, T/C [60]: 26.9%
viability, T/C [33]: 19.2%
